Here are results for four compounds from ChEMBL document CHEMBL1201862, “PubChem BioAssay data set” (2004).

Activity calls are given as the source filed them.

Test [1] has as its target T1, Sentrin-specific protease 8 (Homo sapiens, UniProt Q96LD8).
T1 sequence (Q96LD8 whole entry): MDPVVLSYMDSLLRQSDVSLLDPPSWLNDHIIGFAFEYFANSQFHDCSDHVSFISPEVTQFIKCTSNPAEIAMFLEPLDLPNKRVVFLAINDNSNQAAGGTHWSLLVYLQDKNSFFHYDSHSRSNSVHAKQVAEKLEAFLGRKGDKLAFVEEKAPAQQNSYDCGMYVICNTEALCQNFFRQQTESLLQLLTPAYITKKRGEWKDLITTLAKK
The test is described as follows: inhibition of human SENP8 cleavage activity – biochemical, luminescence, SAR follow-up (AID 504501). It counts as functional.

Test [2] has as its target T2, Caspase-3 (Homo sapiens, UniProt P42574).
T2 sequence (P42574 whole entry): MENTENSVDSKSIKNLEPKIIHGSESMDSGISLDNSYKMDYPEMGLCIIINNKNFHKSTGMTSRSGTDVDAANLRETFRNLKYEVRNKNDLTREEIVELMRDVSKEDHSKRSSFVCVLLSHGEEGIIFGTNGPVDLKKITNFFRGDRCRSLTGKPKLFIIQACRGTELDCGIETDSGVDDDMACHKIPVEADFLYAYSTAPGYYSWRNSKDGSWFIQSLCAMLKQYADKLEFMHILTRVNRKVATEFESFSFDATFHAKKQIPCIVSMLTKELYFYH
Nature of the test: inhibition of recombinant caspase-3 activity – biochemical, luminescence, set 2, selectivity assay for SENP protease inhibitor project, SAR follow-up (AID 588599). In kind it is functional.

Test [3] has as its target T1, Sentrin-specific protease 8. The test is described as follows: inhibition of sentrin protease 8 – biochemical, luminescence, set 2, SAR follow-up (AID 588601). It counts as functional.
For test [4], the target named is T2, Caspase-3. The test is described as follows: SAR Analysis of small molecule inhibitors of Sentrin-specific proteases (SENPs) using a Caspase-3 Selectivity assay. [Related pubchem assays (depositor defined):AID2540, AID2599, AID434973, AID489001]. It counts as functional.
Test [5] addresses T3, Sentrin-specific protease 7 (Homo sapiens, UniProt Q9BQF6).
T3 sequence (Q9BQF6 whole entry): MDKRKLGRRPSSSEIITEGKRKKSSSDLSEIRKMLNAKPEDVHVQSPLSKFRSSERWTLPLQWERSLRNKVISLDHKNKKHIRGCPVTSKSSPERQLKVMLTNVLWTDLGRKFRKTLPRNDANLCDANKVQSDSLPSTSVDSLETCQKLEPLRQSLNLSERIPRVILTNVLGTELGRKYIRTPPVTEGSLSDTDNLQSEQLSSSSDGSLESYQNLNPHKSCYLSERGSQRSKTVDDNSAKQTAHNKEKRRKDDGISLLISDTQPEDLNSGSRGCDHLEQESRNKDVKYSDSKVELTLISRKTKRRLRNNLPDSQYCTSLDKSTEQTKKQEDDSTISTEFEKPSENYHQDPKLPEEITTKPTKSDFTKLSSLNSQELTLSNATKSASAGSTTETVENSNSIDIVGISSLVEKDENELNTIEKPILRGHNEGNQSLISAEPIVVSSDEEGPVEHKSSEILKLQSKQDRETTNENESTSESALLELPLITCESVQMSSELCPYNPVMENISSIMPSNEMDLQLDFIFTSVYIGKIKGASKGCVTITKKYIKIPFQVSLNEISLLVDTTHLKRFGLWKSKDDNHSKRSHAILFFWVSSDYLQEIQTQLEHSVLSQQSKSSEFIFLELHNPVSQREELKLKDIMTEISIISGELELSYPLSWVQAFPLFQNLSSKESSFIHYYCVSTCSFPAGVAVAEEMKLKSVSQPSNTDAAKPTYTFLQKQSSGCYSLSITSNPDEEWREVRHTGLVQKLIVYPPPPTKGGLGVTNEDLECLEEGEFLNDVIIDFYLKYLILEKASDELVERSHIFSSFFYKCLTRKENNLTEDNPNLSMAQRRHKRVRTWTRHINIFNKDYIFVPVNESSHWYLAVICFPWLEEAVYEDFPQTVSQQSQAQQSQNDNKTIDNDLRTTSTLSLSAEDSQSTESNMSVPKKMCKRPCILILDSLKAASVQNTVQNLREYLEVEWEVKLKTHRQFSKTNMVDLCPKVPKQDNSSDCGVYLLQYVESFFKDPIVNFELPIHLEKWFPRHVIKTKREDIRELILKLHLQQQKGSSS
The test is described as follows: inhibition of human SENP7 cleavage activity – biochemical, luminescence, set 2, SAR follow-up (AID 588600). It counts as functional.

In test [6] the target is T4, Sentrin-specific protease 6 (Homo sapiens, UniProt Q9GZR1).
T4 sequence (Q9GZR1 whole entry): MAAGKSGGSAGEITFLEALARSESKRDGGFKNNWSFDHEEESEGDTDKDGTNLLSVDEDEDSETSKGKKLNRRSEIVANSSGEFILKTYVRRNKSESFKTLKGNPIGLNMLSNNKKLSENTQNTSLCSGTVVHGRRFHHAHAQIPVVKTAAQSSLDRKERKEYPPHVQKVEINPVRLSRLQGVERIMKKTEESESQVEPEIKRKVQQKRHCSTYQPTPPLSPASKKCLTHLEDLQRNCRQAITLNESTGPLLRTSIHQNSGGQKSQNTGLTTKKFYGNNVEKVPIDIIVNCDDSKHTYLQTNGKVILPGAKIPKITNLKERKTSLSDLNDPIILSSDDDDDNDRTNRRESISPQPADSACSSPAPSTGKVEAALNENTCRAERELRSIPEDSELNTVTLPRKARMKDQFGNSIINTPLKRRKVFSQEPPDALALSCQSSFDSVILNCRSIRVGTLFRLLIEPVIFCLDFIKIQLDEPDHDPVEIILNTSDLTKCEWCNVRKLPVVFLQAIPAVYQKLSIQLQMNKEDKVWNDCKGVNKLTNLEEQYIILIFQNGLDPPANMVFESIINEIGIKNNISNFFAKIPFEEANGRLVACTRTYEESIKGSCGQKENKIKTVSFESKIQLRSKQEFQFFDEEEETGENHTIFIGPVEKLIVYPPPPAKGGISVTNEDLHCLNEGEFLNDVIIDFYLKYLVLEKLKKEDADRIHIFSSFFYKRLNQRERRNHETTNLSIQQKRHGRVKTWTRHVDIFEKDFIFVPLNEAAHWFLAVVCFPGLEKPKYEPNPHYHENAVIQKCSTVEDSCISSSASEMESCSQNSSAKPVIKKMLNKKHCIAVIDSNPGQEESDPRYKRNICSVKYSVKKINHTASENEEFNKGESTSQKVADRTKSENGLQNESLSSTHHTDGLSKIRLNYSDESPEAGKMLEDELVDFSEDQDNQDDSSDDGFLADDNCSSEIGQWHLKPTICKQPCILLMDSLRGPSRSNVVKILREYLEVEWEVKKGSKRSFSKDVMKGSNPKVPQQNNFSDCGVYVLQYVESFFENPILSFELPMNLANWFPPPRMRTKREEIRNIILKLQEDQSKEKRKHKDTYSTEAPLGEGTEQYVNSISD
Nature of the test: SAR Analysis of small molecule inhibitors of Sentrin-specific protease 6 (SENP6) using a Luminescent assay. [Related pubchem assays (depositor defined):AID2582, AID2599]. It counts as functional.

The target of test [7] is T4, Sentrin-specific protease 6. Nature of the test: inhibition of human SENP6 catalytic domain – biochemical, luminescence, set 2, SAR follow-up (AID 588598). It counts as functional.
In test [8] the target is T3, Sentrin-specific protease 7. The test is described as follows: inhibition of human SENP7 cleavage activity – biochemical, luminescence, SAR follow-up (AID 504497). In kind it is functional.
Test [9] concerns the target T5, Endoribonuclease toxin MazF (Escherichia coli K-12, UniProt P0AE70).
T5 sequence (P0AE70 whole entry): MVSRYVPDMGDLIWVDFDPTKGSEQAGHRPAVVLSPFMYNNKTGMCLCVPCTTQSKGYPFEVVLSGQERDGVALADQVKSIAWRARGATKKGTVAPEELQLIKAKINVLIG
Nature of the test: MazEF toxin-antitoxin RNase activation – biochemical, fluorescence, single-stranded RNA substrate, SAR follow-up (AID 588603). In kind it is functional.

Test [10] has as its target T5, Endoribonuclease toxin MazF. The test is described as follows: activation of MazEF endoribonuclease cleavage – biochemical, fluorescence, single-stranded RNA substrate, uHTS hits, dose response (AID 588481). It counts as functional.
The next test has as its system MEF. The test is described as follows: SAR analysis of small molecule cytotoxicity of MazEF TA System activators in embryonic fibroblast (MEF) cells. [Related pubchem assays (depositor defined):AID504720, AID504743]. It counts as functional. Conditions: Mus musculus.
Test [11] addresses T5, Endoribonuclease toxin MazF. The test is described as follows: SAR analysis of small molecule activators of the MazEF TA System via a fluorescence-based single-stranded RNase assay counterscreen. [Related pubchem assays (depositor defined):AID504720, AID504743]. It counts as functional. In general terms: Counterscreens check selectivity or assay interference.
Test [12] has the same target. The test is described as follows: substrate-only fluorescence increase artefacts – biochemical, single-stranded RNase substrate, counter-screen for MazEF activator project, dose response (AID 588502). It counts as functional.
The target of a further test is Phospholipase D1 (Homo sapiens, UniProt Q13393). The test is described as follows: cellular phospholipase D1 inhibition IC50 – cell-based, dose response (AID 602151).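 Note: cellular PLD1 assay in Calu-1 cells stimulated with PMA.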 In kind it is functional.
The target of a further test is Phospholipase D2 (Homo sapiens, UniProt O14939). The test is described as follows: cellular phospholipase D2 inhibition IC50 – cell-based, dose response (AID 602147).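 Note: cellular assay in HEK293 cells overexpressing GFP-tagged PLD2.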 It counts as functional.
In another test the target is Large T antigen (Simian virus 40, UniProt P03070). It counts as functional, Betapolyomavirus macacae.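 Note: Confirmatory-stage PubChem screen for compounds that inhibit SV40 T antigen.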
The target in test [13] is FAD-linked sulfhydryl oxidase ALR (Homo sapiens, UniProt P55789). The test is described as follows: ALR-catalysed DTT oxidation blockers – biochemical, H2O2 detection, luminescence, cherry-pick, dose response (AID 493248).
Test [14] is described as follows: luciferase inhibitors in kinase-free ADP detection – biochemical, luminescence, cherry-pick, set 02, artefact control for Dyrk1A inhibitor project, dose response (AID 588348).
In test [15] the target is Dual specificity tyrosine-phosphorylation-regulated kinase 1A (Rattus norvegicus, UniProt Q63470). In kind it is biochemical, Homo sapiens.
Another test deals with P388/ADR. The test is described as follows: cells. It counts as functional. Conditions: Mus musculus, P388/ADR.
A further test deals with SN12K1. Nature of the test: cells. It counts as functional. Conditions: Homo sapiens, SN12K1.
Another test concerns P388. The test is described as follows: cells. It counts as functional. Conditions: Mus musculus, P388.

Sequence of FAD-linked sulfhydryl oxidase ALR (P55789 whole entry): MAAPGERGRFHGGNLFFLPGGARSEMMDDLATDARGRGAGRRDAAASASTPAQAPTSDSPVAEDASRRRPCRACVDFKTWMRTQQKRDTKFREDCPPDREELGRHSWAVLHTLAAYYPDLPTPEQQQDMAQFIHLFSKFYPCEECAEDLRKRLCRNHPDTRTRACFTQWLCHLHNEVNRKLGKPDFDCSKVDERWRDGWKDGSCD
Sequence of Phospholipase D2 (O14939 whole entry): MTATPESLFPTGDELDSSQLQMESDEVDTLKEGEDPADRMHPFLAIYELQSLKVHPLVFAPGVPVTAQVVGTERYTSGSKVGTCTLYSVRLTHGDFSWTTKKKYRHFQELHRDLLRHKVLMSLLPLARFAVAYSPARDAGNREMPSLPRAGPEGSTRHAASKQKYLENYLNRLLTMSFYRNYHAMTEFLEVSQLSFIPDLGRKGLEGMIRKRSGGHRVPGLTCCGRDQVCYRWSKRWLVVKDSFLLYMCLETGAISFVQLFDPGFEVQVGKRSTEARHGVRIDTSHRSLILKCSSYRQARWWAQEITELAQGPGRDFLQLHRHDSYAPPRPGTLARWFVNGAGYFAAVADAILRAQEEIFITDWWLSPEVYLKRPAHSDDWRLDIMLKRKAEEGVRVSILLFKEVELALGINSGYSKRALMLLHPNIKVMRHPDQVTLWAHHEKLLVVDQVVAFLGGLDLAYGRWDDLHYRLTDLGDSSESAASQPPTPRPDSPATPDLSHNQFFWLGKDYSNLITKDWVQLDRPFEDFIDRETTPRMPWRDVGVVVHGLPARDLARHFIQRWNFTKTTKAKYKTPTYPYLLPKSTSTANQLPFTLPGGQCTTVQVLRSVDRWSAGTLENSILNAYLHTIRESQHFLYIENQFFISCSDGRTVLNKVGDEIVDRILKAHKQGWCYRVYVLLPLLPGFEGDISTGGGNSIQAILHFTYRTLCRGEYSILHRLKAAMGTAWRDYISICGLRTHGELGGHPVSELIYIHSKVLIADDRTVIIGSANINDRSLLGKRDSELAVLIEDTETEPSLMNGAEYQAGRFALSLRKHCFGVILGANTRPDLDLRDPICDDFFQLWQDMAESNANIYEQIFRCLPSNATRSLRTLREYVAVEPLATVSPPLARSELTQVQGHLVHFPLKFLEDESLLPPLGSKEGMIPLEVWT
Sequence of Phospholipase D1 (Q13393 whole entry): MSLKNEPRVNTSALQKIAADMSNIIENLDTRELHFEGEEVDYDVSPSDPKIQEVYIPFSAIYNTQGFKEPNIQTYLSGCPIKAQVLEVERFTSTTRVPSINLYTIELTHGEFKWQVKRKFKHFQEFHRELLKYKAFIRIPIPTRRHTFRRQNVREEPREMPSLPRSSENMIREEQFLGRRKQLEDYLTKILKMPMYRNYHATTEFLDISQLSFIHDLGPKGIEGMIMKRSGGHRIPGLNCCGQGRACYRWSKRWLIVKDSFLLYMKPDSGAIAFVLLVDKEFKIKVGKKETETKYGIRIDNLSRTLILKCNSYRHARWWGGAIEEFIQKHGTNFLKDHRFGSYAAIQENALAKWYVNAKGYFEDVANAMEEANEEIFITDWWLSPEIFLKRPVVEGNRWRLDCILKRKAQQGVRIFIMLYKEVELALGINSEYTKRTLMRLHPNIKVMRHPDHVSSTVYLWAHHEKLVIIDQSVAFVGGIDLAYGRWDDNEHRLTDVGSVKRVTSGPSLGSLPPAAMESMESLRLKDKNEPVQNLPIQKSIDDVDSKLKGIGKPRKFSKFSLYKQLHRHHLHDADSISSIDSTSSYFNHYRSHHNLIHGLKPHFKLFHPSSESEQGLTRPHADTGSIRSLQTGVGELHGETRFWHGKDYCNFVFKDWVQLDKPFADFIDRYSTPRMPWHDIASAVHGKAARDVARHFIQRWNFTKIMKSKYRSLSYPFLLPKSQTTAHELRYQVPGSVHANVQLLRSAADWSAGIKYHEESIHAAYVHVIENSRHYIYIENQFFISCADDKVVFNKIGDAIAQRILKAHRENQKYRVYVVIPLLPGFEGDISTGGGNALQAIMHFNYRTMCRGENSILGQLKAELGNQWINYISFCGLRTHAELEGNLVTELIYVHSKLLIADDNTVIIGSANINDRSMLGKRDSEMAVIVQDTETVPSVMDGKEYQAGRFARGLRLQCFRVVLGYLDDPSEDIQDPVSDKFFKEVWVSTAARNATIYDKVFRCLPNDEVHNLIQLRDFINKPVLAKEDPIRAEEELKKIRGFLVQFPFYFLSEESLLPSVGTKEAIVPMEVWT
Sequence of Large T antigen (P03070 whole entry): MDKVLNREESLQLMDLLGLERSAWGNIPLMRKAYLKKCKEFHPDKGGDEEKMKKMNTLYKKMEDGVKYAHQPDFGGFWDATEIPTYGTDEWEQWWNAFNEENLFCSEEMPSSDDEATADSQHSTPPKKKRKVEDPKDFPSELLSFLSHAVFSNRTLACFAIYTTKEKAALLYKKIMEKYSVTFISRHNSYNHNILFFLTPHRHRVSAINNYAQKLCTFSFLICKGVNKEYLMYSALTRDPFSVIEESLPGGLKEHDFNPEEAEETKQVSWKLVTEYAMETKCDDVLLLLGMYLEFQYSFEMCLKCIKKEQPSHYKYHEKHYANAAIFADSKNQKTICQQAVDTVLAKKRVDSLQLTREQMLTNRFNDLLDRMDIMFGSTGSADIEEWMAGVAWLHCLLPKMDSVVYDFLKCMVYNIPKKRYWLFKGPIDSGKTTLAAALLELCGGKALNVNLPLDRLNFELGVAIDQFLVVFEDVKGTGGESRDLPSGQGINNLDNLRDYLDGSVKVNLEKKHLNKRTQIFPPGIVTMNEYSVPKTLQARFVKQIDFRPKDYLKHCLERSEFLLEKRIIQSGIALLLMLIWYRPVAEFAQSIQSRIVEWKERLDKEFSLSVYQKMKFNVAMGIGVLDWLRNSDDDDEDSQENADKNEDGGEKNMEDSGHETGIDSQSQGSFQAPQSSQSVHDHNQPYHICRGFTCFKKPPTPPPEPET

As for `O=C(Nc1nc2ccc(Cl)cc2s1)c1ccco1`, the IC50 in [1] is 1.7 µM (active); at Caspase-3 [2], 1.42 µM (active); in [3], 1.08 µM (active); on Caspase-3 [4], 1.5 µM (active); in [5], 1.23 µM (active); in test [6], 1.4 µM (active). In addition, the results for the IC50 in [7] and in test [8] were 1.16 µM (active) and 1 µM (active), respectively.

Turning to `Cc1ccc(CNC(=O)c2ccc(CNS(=O)(=O)c3ccc4c(c3)C(C)(C)C(=O)N4C)cc2)o1`, the EC50 in test [9] was 9.72 µM (active); in test [10] it was 9.43 µM (active); in test [11], > 99 µM (inactive); in test [12] it was > 99 µM (inactive). In the test on MEF, the CC50 is > 99 µM (inactive).

As to `C[C@@H](CN1CCC(n2c(=O)[nH]c3ccccc32)CC1)NC(=O)c1ccc(C(F)(F)F)cc1`, the IC50 is 0.121 µM (active) on Phospholipase D1 and 20 µM (active) at Phospholipase D2.

On to `Oc1cc(O)cc(/C=C/c2ccc(O)c(O)c2)c1` [PICEATANNOL], for which the IC50 at Large T antigen was 16.4 µM (active). The AC50 was 0.689 µM (active) in test [13], 27.7 µM (active) in test [14] and 7.53 µM (active) in test [15]. Besides, the EC50 in test [10] and in [12] was > 99 µM (inactive) each time. Also, the GI50 was 7.76 µM (inactive) in the test with P388/ADR, 3.94 µM (inactive) in the test with SN12K1 and 5.48 µM (inactive) with P388.

A word on the IC50: it is the concentration that inhibits the measured activity by half. A word on the EC50: it is the concentration giving half of the maximal effect. Broadly, the CC50 is the concentration giving 50% cytotoxicity. For orientation: AC50 means the concentration at which the activity in the assay is half-maximal. Usually GI50 stands for the concentration that inhibits growth by half.
